Measurements published in ChEMBL document CHEMBL3885881, “DrugMatrix”.

Organism: Rattus norvegicus
Experiment: DrugMatrix - Regimen: Daily Repeat
Type: toxicity, organism-based, Sprague-Dawley
Design: regimen Daily Repeat, gender Male, age 6-8 weeks
Settings: in vivo, po, route oral GAVAGE, vehicle .5 % CMC; for BASOPHIL / EOSINOPHIL / ERYTHROCYTE COUNT / HEMATOCRIT / HEMOGLOBIN / LYMPHOCYTE / MEAN CORPUSCULAR HEMOGLOBIN / MEAN CORPUSCULAR HEMOGLOBIN CONCENTRATION / MEAN CORPUSCULAR VOLUME / MONOCYTE / NEUTROPHIL / PLATELET COUNT: tissue Blood; for ALANINE AMINOTRANSFERASE / ALBUMIN / ALKALINE PHOSPHATASE / ASPARTATE AMINOTRANSFERASE / BLOOD UREA NITROGEN / CHOLESTEROL / CREATINE PHOSPHOKINASE / CREATININE / GLUCOSE / PHOSPHORUS / POTASSIUM / SODIUM / TOTAL BILIRUBIN / TOTAL PROTEIN: tissue Plasma
[1] = 0 mg/kg, 72 h, dose level Control, time 3 day
[2] = 0 mg/kg, 120 h, dose level Control, time 5 day
[3] = 20 mg/kg, 72 h, dose level Low, time 3 day
[4] = 20 mg/kg, 120 h, dose level Low, time 5 day

In the case of CN(C)CCC=C1c2ccccc2COc2ccccc21 [DOXEPIN], the BASOPHIL [1] is reported as 0%, the EOSINOPHIL [1] is reported as 0.33% and the “ERYTHROCYTE COUNT” value [1] is reported as 6.2 x10E6/uL. For the same compound, the HEMATOCRIT [1] was 38.08%, the HEMOGLOBIN [1] was 14.92 G/DL and the LYMPHOCYTE [1] was 76%. For the same compound, the “MEAN CORPUSCULAR HEMOGLOBIN” value [1] was 24.1 pg, the “MEAN CORPUSCULAR HEMOGLOBIN CONCENTRATION” value [1] was 39.17 G/DL and the “MEAN CORPUSCULAR VOLUME” value [1] was 61.48 fL. The MONOCYTE [1] was 3.83%, the NEUTROPHIL [1] was 19.83% and the “PLATELET COUNT” value [1] was 1327.5 x10E3/uL. For the same compound, the “ALANINE AMINOTRANSFERASE” value [1] was 40.17 u/L, the ALBUMIN [1] was 4.07 G/DL and the “ALKALINE PHOSPHATASE” value [1] was 372 u/L. For the same compound, the “ASPARTATE AMINOTRANSFERASE” value [1] was 67.17 u/L, the “BLOOD UREA NITROGEN” value [1] was 18.83 mg/dL and the CHOLESTEROL [1] was 78.17 mg/dL. For the same compound, the “CREATINE PHOSPHOKINASE” value [1] was 149.17 u/L, the CREATININE [1] was 0.57 mg/dL and the GLUCOSE [1] was 185.17 mg/dL. The PHOSPHORUS [1] was 11.43 mg/dL, the POTASSIUM [1] was 6.78 MEQ/L and the SODIUM [1] was 152.83 MEQ/L. For the same compound, the “TOTAL BILIRUBIN” value [1] was 0.4 mg/dL, the “TOTAL PROTEIN” value [1] was 6.87 G/DL and the BASOPHIL [2] was 0%. The EOSINOPHIL [2] was 0%, the “ERYTHROCYTE COUNT” value [2] was 6.05 x10E6/uL and the HEMATOCRIT [2] was 36.55%. The HEMOGLOBIN [2] was 14.7 G/DL, the LYMPHOCYTE [2] was 86.83% and the “MEAN CORPUSCULAR HEMOGLOBIN” value [2] was 24.37 pg. For the same compound, the “MEAN CORPUSCULAR HEMOGLOBIN CONCENTRATION” value [2] was 40.32 G/DL, the “MEAN CORPUSCULAR VOLUME” value [2] was 60.47 fL and the MONOCYTE [2] was 0.83%. For the same compound, the NEUTROPHIL [2] was 12.33%, the “PLATELET COUNT” value [2] was 1177 x10E3/uL and the “ALANINE AMINOTRANSFERASE” value [2] was 41.83 u/L. For the same compound, the ALBUMIN [2] was 3.75 G/DL, the “ALKALINE PHOSPHATASE” value [2] was 377.5 u/L and the “ASPARTATE AMINOTRANSFERASE” value [2] was 60.83 u/L. For the same compound, the “BLOOD UREA NITROGEN” value [2] was 16 mg/dL, the CHOLESTEROL [2] was 67.83 mg/dL and the “CREATINE PHOSPHOKINASE” value [2] was 120.33 u/L. For the same compound, the CREATININE [2] was 0.6 mg/dL, the GLUCOSE [2] was 167.67 mg/dL and the PHOSPHORUS [2] was 10.03 mg/dL. The POTASSIUM [2] was 6.68 MEQ/L, the SODIUM [2] was 150.5 MEQ/L and the “TOTAL BILIRUBIN” value [2] was 0.57 mg/dL. For the same compound, the “TOTAL PROTEIN” value [2] was 6.25 G/DL, the BASOPHIL [3] was 0% and the EOSINOPHIL [3] was 0%. For the same compound, the “ERYTHROCYTE COUNT” value [3] was 5.9 x10E6/uL, the HEMATOCRIT [3] was 36.4% and the HEMOGLOBIN [3] was 14.15 G/DL. The LYMPHOCYTE [3] was 83%, the “MEAN CORPUSCULAR HEMOGLOBIN” value [3] was 24 pg and the “MEAN CORPUSCULAR HEMOGLOBIN CONCENTRATION” value [3] was 38.9 G/DL. For the same compound, the “MEAN CORPUSCULAR VOLUME” value [3] was 61.75 fL, the MONOCYTE [3] was 0% and the NEUTROPHIL [3] was 17%. For the same compound, the “PLATELET COUNT” value [3] was 1287.5 x10E3/uL, the “ALANINE AMINOTRANSFERASE” value [3] was 38.33 u/L and the ALBUMIN [3] was 3.6 G/DL. For the same compound, the “ALKALINE PHOSPHATASE” value [3] was 352.33 u/L, the “ASPARTATE AMINOTRANSFERASE” value [3] was 56.67 u/L and the “BLOOD UREA NITROGEN” value [3] was 11.67 mg/dL. The CHOLESTEROL [3] was 72.67 mg/dL, the “CREATINE PHOSPHOKINASE” value [3] was 139.33 u/L and the CREATININE [3] was 0.53 mg/dL. For the same compound, the GLUCOSE [3] was 179.67 mg/dL, the PHOSPHORUS [3] was 11.8 mg/dL and the POTASSIUM [3] was 6.33 MEQ/L. The SODIUM [3] was 150 MEQ/L, the “TOTAL BILIRUBIN” value [3] was 0.2 mg/dL and the “TOTAL PROTEIN” value [3] was 5.83 G/DL. For the same compound, the BASOPHIL [4] was 0%, the EOSINOPHIL [4] was 0% and the “ERYTHROCYTE COUNT” value [4] was 6.16 x10E6/uL. The HEMATOCRIT [4] was 37.07%, the HEMOGLOBIN [4] was 14.67 G/DL and the LYMPHOCYTE [4] was 91.67%. For the same compound, the “MEAN CORPUSCULAR HEMOGLOBIN” value [4] was 23.87 pg, the “MEAN CORPUSCULAR HEMOGLOBIN CONCENTRATION” value [4] was 39.57 G/DL and the “MEAN CORPUSCULAR VOLUME” value [4] was 60.23 fL. The MONOCYTE [4] was 0.33%, the NEUTROPHIL [4] was 8% and the “PLATELET COUNT” value [4] was 1231.33 x10E3/uL. The “ALANINE AMINOTRANSFERASE” value [4] was 36 u/L, the ALBUMIN [4] was 3.67 G/DL and the “ALKALINE PHOSPHATASE” value [4] was 311.33 u/L. The “ASPARTATE AMINOTRANSFERASE” value [4] was 55.67 u/L, the “BLOOD UREA NITROGEN” value [4] was 12.67 mg/dL and the CHOLESTEROL [4] was 71.33 mg/dL. The “CREATINE PHOSPHOKINASE” value [4] was 153 u/L, the CREATININE [4] was 0.6 mg/dL and the GLUCOSE [4] was 161.33 mg/dL. For the same compound, the PHOSPHORUS [4] was 12.47 mg/dL, the POTASSIUM [4] was 6.8 MEQ/L and the SODIUM [4] was 151.67 MEQ/L. For the same compound, the “TOTAL BILIRUBIN” value [4] was 0.43 mg/dL and the “TOTAL PROTEIN” value [4] was 6.17 G/DL.
